Calls of active or inactive are those of the source.
Experiments:
[1] = biological target: Eukaryotic translation initiation factor 4H (Homo sapiens, UniProt Q15056); experiment: human eIF4H binding inhibitors, primary screen, translation initiation inhibitor project, biochemical, uHTS, fluorescence polarization (AID 2012)
[2] = biological target: Polyadenylate-binding protein 1 (Homo sapiens, UniProt P11940); experiment: PABP poly(A) RNA binding inhibitors, primary screen, biochemical, fluorescence polarization, uHTS (AID 2014)
Chain of Polyadenylate-binding protein 1 (P11940 whole entry): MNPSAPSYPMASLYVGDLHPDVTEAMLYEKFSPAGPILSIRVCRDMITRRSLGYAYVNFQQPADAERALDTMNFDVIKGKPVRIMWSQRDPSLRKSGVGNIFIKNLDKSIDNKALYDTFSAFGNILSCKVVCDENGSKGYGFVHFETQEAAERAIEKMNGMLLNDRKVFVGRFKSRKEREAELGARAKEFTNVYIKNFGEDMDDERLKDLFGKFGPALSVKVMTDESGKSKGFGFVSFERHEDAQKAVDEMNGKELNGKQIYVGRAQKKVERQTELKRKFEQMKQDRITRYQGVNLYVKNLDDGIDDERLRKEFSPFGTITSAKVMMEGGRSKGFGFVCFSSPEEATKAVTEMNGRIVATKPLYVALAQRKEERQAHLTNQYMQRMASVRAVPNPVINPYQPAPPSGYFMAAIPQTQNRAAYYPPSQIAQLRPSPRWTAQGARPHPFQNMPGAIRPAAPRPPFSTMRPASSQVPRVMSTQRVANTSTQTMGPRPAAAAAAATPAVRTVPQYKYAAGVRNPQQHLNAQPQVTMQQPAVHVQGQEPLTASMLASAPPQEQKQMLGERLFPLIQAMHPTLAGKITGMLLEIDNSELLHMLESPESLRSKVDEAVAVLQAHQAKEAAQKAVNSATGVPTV

[3] = biological target: T1, Mannose-6-phosphate isomerase (Homo sapiens, UniProt P34949); experiment: human PMI inhibitors, high substrate, primary screen, biochemical, fluorescence intensity, high mannose 6-phosphate (AID 1220)
T1 sequence (P34949 whole entry): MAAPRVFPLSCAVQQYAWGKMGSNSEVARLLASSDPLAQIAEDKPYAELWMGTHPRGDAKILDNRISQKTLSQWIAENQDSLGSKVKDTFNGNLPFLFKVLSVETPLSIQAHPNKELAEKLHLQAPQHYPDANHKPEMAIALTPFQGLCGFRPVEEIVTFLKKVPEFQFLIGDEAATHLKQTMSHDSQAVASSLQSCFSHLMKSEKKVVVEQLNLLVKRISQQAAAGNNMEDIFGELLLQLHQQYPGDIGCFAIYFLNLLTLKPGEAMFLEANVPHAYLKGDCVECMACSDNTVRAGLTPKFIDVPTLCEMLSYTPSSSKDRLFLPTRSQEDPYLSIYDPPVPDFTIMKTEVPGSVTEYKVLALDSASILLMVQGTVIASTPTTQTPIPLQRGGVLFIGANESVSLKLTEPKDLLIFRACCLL

HEK293 [4] = experiment: NOD1 signaling inhibitors, primary screen, cell-based, luminescence, uHTS (AID 1578); format: functional; conditions: Homo sapiens
SUMO-activating enzyme [5] = biological target: T2, SUMO-activating enzyme (Homo sapiens, UniProt Q9UBT2); experiment: SUMOylation inhibitor hit validation, confirmation, SUMOylation inhibitor project, biochemical, AlphaScreen (AID 2018); format: functional
T2 sequence (Q9UBE0 whole entry): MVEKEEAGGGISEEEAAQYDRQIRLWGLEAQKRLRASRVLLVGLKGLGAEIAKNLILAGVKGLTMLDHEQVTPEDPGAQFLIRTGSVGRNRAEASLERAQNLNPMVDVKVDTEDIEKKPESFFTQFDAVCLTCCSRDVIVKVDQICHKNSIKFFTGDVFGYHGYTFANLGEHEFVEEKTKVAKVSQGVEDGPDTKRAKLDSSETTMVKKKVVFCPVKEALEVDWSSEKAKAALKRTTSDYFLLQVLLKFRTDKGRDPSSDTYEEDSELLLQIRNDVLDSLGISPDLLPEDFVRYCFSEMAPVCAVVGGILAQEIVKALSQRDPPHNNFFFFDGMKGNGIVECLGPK
T2 sequence (Q9UBT2 whole entry): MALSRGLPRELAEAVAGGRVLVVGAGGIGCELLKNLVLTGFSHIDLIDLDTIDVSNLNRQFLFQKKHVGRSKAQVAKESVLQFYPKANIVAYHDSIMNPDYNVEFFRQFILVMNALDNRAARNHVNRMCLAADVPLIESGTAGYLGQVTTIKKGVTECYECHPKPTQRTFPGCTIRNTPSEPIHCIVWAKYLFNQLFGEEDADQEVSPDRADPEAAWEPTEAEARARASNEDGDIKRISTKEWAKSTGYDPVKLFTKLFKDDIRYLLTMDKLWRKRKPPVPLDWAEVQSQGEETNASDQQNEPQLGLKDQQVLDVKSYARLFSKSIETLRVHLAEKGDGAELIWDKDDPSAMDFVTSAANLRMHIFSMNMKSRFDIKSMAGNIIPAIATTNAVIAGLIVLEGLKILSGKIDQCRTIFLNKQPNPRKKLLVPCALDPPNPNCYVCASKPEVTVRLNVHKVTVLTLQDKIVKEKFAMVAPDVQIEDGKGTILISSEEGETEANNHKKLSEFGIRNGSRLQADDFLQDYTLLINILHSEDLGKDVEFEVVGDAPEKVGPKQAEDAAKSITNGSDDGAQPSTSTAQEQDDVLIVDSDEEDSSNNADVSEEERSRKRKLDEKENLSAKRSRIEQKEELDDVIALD

HEK293 [6] = experiment: cells; format: functional, cell-based; conditions: Homo sapiens
HEK293 [7] = experiment: cells; format: functional, cell-based; conditions: Homo sapiens; remark: listed apart in the source
SUMO-activating enzyme [8] = biological target: T2, SUMO-activating enzyme; experiment: inhibitors of in vitro SUMOylation cascade, primary screen, biochemical, HTRF, uHTS (AID 2006); format: protein-complex assay
HEK293 [9] = experiment: NOD2 signaling inhibitors in MDP-stimulated cells, cell-based, uHTS, luminescence (AID 2001); format: functional; conditions: Homo sapiens
[10] = biological target: Eukaryotic translation initiation factor 4E (Mus musculus, UniProt P63073); experiment: eIF4E–eIF4G protein interaction inhibitors, dose response, biochemical, TR-FRET (AID 855); format: functional;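 further: potency for disrupting eIF4E binding to eIF4GI seen as loss of FRET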
Chain of Eukaryotic translation initiation factor 4E (P63073 whole entry): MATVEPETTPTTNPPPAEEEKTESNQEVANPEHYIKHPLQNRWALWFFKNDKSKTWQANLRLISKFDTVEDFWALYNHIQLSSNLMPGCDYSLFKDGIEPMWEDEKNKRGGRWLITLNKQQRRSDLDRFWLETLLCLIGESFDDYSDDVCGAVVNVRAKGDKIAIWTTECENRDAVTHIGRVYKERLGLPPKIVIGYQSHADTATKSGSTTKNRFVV

[11] = biological target: T3, Sphingosine 1-phosphate receptor 4 (Homo sapiens, UniProt O95977); experiment: Fluorescence dose response cell-based high throughput screening assay for antagonists of the Sphingosine 1-Phosphate Receptor 4 (S1P4). [Related pubchem assays: 1524 (Confirmation in triplicates.), 1510 (Primary screen.)]; format: functional
T3 sequence (O95977 whole entry): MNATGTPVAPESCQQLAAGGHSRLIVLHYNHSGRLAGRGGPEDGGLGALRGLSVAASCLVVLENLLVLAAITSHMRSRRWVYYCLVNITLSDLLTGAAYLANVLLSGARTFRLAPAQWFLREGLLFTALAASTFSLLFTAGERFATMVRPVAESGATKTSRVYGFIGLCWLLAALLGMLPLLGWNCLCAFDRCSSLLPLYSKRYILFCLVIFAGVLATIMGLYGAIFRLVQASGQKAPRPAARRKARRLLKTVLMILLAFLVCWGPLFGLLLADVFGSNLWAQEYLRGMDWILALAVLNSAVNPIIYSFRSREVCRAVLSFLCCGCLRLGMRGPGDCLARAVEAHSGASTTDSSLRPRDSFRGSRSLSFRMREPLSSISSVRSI

[12] = biological target: G-protein coupled receptor 35 (Homo sapiens, UniProt Q9HC97); experiment: GPR35 antagonists blocking zaprinast-driven arrestin recruitment, primary screen, imaging, U2OS, beta-arrestin-GFP, zaprinast agonist (AID 2058); format: functional;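 further: antagonist potency meaning inhibition of agonist-induced arrestin redistribution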
Chain of G-protein coupled receptor 35 (Q9HC97 whole entry): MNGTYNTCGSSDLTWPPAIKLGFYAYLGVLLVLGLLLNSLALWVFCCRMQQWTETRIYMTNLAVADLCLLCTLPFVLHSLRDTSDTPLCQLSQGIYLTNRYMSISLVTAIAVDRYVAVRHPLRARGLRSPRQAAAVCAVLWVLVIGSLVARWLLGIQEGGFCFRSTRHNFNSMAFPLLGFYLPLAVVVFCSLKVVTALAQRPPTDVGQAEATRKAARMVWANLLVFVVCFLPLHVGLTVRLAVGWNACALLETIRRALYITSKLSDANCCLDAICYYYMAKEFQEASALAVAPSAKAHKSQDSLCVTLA

[13] = inhibitors of intracellular T. cruzi replication, confirmation, NIH3T3 host cells, beta-gal luminescence (AID 2044); format: functional, cell-based;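 further: intracellular parasites grown in NIH/3T3 mouse fibroblasts as host cells; luminescent beta-galactosidase reporter signal from transgenic T. cruzi replicating inside host cells; inhibitors lower the luminescence signal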
[14] = growth suppression of PTEN-null colon cells, dose response, cell-based, HCT116 PTEN knockout (AID 1047); format: functional;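 further: HCT116 colon tumor cells with PTEN knocked out; cells exposed to compound for 60 hours before readout; potency for loss of cell viability measured by luminescence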
[15] = growth suppression of beta-catenin-knockout colon cells, dose response, cell-based, HCT116, human colon tumor (AID 1045); format: functional;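 further: HCT116 colon tumor cells with beta catenin knocked out; cells exposed to compound for 60 hours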
[16] = biological target: Sphingosine 1-phosphate receptor 1 (Homo sapiens, UniProt P21453); format: functional;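 further: Tango beta-arrestin reporter U2OS cells stimulated with S1P near its EC80; inhibitor potency meaning antagonism of receptor activation by the natural agonist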
Chain of Sphingosine 1-phosphate receptor 1 (P21453 whole entry): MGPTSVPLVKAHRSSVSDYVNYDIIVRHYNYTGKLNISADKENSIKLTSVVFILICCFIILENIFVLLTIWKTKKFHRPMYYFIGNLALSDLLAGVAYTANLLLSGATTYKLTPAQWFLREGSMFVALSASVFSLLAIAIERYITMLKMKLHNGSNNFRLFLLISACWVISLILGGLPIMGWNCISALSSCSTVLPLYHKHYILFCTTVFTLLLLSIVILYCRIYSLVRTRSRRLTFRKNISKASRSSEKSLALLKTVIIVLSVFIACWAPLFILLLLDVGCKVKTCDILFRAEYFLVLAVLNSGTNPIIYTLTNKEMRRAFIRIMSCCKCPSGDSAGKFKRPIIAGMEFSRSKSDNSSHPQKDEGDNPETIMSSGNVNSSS

[17] = cytotoxicity toward NIH3T3 fibroblasts, dose response, counter-screen, cell-based, ATP luminescence, mouse fibroblasts (AID 2010); format: functional;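 further: cells exposed to compound for about 90 hours before reading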
Troponin, cardiac muscle = Troponin, cardiac muscle (Homo sapiens, UniProt P19429+P45379+P63316); experiment: Fluorescence-based biochemical high throughput dose response assay for activators of the calcium sensitivity of cardiac Regulated Thin Filaments (RTF). [Related pubchem assays (depositor defined):AID493008, AID493018, AID504382, AID504383]; format: protein-complex assay
Mu-type opioid receptor [18] = biological target: T4, Mu-type opioid receptor (Homo sapiens, UniProt P35372); experiment: MOR agonists by imaging, SAR follow-up, image-based (AID 2352); format: functional
T4 sequence (P35372 whole entry): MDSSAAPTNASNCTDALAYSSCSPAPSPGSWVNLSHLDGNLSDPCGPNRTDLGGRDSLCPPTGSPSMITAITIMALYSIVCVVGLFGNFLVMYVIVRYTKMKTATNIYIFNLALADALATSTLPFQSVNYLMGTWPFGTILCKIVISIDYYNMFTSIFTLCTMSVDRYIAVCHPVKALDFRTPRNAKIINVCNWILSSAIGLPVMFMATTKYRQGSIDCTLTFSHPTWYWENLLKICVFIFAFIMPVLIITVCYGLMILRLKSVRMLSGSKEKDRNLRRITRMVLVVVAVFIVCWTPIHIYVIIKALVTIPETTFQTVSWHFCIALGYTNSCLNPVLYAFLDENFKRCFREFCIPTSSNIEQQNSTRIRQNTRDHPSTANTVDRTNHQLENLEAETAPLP

[19] = biological target: T5, Kappa-type opioid receptor (Homo sapiens, UniProt P41145); experiment: kappa opioid receptor blockers, cell-based, luminescence, beta-arrestin, SAR follow-up (AID 2285); format: functional
T5 sequence (P41145 whole entry): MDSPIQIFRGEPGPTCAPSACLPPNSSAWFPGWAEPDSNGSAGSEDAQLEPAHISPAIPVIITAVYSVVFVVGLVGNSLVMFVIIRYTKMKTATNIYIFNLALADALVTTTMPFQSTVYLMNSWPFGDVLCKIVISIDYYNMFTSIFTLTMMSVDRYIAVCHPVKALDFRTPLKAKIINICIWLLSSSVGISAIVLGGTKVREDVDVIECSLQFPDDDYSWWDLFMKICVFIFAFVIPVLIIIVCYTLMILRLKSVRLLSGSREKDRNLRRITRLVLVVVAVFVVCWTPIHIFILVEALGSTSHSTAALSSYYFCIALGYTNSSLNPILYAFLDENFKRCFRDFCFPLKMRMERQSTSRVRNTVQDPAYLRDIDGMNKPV

Mu-type opioid receptor [20] = biological target: T4, Mu-type opioid receptor; experiment: MOR antagonists, SAR follow-up, image-based (AID 2420); format: functional;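 further: compounds added before stimulation of receptor with agonist DAMGO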
[21] = biological target: T6, Delta-type opioid receptor (Homo sapiens, UniProt P41143); experiment: DOR antagonists, SAR follow-up, image-based (AID 2357); format: functional
T6 sequence (P41143 whole entry): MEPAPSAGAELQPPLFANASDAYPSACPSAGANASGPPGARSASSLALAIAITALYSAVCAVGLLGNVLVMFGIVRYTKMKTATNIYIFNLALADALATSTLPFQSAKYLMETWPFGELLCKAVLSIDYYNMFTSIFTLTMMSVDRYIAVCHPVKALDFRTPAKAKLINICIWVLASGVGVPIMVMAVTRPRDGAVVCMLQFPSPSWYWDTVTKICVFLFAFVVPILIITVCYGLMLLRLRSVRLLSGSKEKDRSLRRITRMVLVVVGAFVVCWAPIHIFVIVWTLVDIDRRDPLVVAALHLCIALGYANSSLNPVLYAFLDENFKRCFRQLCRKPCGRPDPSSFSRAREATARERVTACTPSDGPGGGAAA

[22] = biological target: T6, Delta-type opioid receptor; experiment: DOR agonists, SAR follow-up, image-based (AID 2370); format: functional
[23] = biological target: T5, Kappa-type opioid receptor; experiment: KOR antagonists by imaging, SAR follow-up, image-based (AID 2348); format: functional
[24] = biological target: T5, Kappa-type opioid receptor; experiment: KOR agonist analogs, imaging readout, SAR follow-up, image-based (AID 2359); format: functional

In the case of `CCN1CCc2c(C#N)c(NCc3ccccc3)nc(NCCO)c2C1`, the IC50 [1] is reported as > 100 µM (inactive), the IC50 [2] is reported as > 100 µM (inactive) and the IC50 [3] is reported as > 50 µM (not active).

For `Cc1ccc(/C=C2/SC(=S)N(c3ccc(S(=O)(=O)Nc4nccs4)cc3)C2=O)cc1`, the EC50 (HEK293 [4]) was > 20 µM (inactive), the IC50 (SUMO-activating enzyme [5]) was 1.58 µM (active) and the IC50 (HEK293 [6]) was > 20 µM (inactive). For the same compound, the IC50 (HEK293 [7]) was 17.8 µM (active), the IC50 (SUMO-activating enzyme [8]) was 38.6 µM (active) and the IC50 (HEK293 [9]) was 14.2 µM (inactive).

For `COC(=O)C1=C(C)NC(=O)C1(Nc1ccc(Cl)cn1)C(F)(F)F` (centres undefined), the IC50 [10] was > 64 µM (inactive).

With `CCn1c(SCC(=O)N/N=C/C=C\c2ccco2)nc2ccccc21` the IC50 [1] was 12.3 µM (active) and the IC50 [2] was 68.8 µM (active).

With `COc1cc(/C=C(/C)[N+](=O)[O-])ccc1OCc1ccccc1Cl` the IC50 [11] was 0.727 µM (active), the IC50 [12] was 2.45 µM (active) and the EC50 [13] was 2.07 µM (active). The EC50 [14] was 8.96 µM (active), the EC50 [15] was 8.05 µM (active) and the IC50 [16] was 7.64 µM (active). For the same compound, the EC50 [17] was 9.08 µM (active).

In the case of `Cc1cc(/C=C2/C(=O)N(C)C(=S)N2C)ccc1N1CCCC1`, the EC50 (Troponin, cardiac muscle) is reported as 1.55 µM (active).

In the case of `Cc1ccc(NC(=S)NC(NC(=O)OCc2ccccc2)C(Cl)(Cl)Cl)c(C)c1` (centres undefined), the EC50 (Mu-type opioid receptor [18]) is reported as > 32 µM (inactive), the IC50 [19] is reported as 8.74 µM (active) and the IC50 (Mu-type opioid receptor [20]) is reported as > 32 µM (inactive). The IC50 [21] was > 32 µM (inactive), the EC50 [22] was > 32 µM (inactive) and the IC50 [23] was 1.98 µM (active). The EC50 [24] was > 32 µM (inactive).

With `O=C(NC(NC(=S)Nc1ccc(Br)cc1)C(Cl)(Cl)Cl)OCc1ccccc1` (centres undefined) the EC50 (Mu-type opioid receptor [18]) was > 32 µM (inactive), the IC50 [19] was > 10 µM (inactive) and the IC50 (Mu-type opioid receptor [20]) was > 32 µM (inactive). For the same compound, the IC50 [21] was > 32 µM (inactive), the EC50 [22] was > 32 µM (inactive) and the IC50 [23] was > 32 µM (inactive). For the same compound, the EC50 [24] was > 32 µM (inactive).

— ChEMBL document CHEMBL1201862, “PubChem BioAssay data set” (2004)
